{"source": "patent US6914121B2", "about": "“PEG-LHRH analog conjugates” (Applied Research Systems Ars Holding N.V., priority 1998, dated 2005)", "key": {"[1]": {"experiment": "Solubility of antide in isotonic media", "format": "physicochemical"}, "[2]": {"settings": "previous formulations, e.g. antide 1 mg/ml in 5% glucose; cited from earlier work"}}, "note": "Square brackets hold non-standard residues; d marks the D form. Peptide text beside a SMILES is read from it. * marks the point of attachment. Phe(4-Cl) = N[CH](Cc1ccc(Cl)cc1)C(=O)O; 2Nal = N[CH](Cc1ccc2ccccc2c1)C(=O)O; Lys(iPr) = CC(C)NCCCC[CH](N)C(=O)O; 3Pal = N[CH](Cc1cccnc1)C(=O)O; Nicotinoyl = O=C(c1cccnc1)*", "data": [{"smiles": "CC(=O)NC(Cc1ccc2ccccc2c1)C(=O)NC(Cc1ccc(Cl)cc1)C(=O)NC(Cc1cccnc1)C(=O)NC(CO)C(=O)NC(CCCCNC(=O)c1cccnc1)C(=O)NC(CCCCNC(=O)c1cccnc1)C(=O)NC(CC(C)C)C(=O)NC(CCCCNC(C)C)C(=O)N1CCCC1C(=O)NC(C)C(N)=O", "note": "(stereo not drawn) [antide] (Ac-[2Nal][Phe(4-Cl)][3Pal]SK(Nicotinoyl)K(Nicotinoyl)L[Lys(iPr)]PA-NH2; configuration not given here)", "values": [{"measurement": "solubility", "setting": "[1]; 0.9% NaCl solution", "result": 25, "unit": "µg/mL"}, {"measurement": "solubility", "setting": "[1]; phosphate buffered saline", "result": 16, "unit": "µg/mL"}, {"measurement": "bioavailability", "setting": "[2]", "result": "poor bioavailability"}]}]}
